The supplement of paper PMC10307832

Tests used:
Assay in all cases: relative viability (nuclei count vs DMSO), 5 days (fraction); higher = more cells survive
[1] = compound: CN[C@@H]1C[C@H]2O[C@@](C)([C@@H]1OC)n1c3ccccc3c3c4c(c5c6ccccc6n2c5c31)C(=O)NC4 [Staurosporine] + CC(=O)c1c(C)c2cnc(Nc3ccc(N4CCNCC4)cn3)nc2n(C2CCCC2)c1=O [Palbociclib] (partner 0.5 µM)
Summary of the method: (§1)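 Lung cancer cell lines were pin-tool dosed in 1536-well plates on the day after seeding, with either a lone drug or a fixed anchor-drug dose plus five library-drug doses (not always all listed) in √10 steps. Nuclei were counted on 4× images after 5 days. Relative viability is the ratio of treated-well to vehicle-well nuclei counts, with each value a median of duplicate plates.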

[2] = compound: O=c1[nH]cc(F)c(=O)[nH]1 [5-Fluorouracil] + O=C(CCCCCCC(=O)Nc1ccccc1)NO [Vorinostat] (partner 1 µM)
Summary of the method: as §1

Sulindac + Crizotinib = compound: CC1=C(CC(=O)O)c2cc(F)ccc2/C1=C\c1ccc([S+](C)[O-])cc1 [Sulindac] + C[C@@H](Oc1cc(-c2cnn(C3CCNCC3)c2)cnc1N)c1c(Cl)ccc(F)c1Cl [Crizotinib] (partner 1 µM)
Summary of the method: as §1

Cell Line | relative viability ([1]; first compound 0.005 µM) | relative viability ([1]; first compound 0.01581 µM) | relative viability ([1]; first compound 0.05 µM) | relative viability ([1]; first compound 0.5 µM) | relative viability ([2]; first compound 0.02 µM) | relative viability ([2]; first compound 0.2 µM) | relative viability ([2]; first compound 0.6325 µM) | relative viability ([2]; first compound 2 µM) | relative viability (Sulindac + Crizotinib; first compound 0.08 µM) | relative viability (Sulindac + Crizotinib; first compound 0.253 µM) | relative viability (Sulindac + Crizotinib; first compound 0.8 µM) | relative viability (Sulindac + Crizotinib; first compound 2.53 µM) | relative viability (Sulindac + Crizotinib; first compound 8 µM) | relative viability ([1]; first compound 0.1581 µM)
NCI-H2405 | 0.196 | 0.172 | 0.122 | 0.0886 | 1.02 | 1.14 | 0.931 | 0.522 | 0.907 | 0.899 | 0.701 | 0.85 | 0.939 | –
LXF-289 | 0.717 | 0.21 | 0.16 | 0.117 | 0.708 | 0.67 | 0.383 | 0.309 | 0.844 | 0.868 | 0.776 | 0.85 | 0.855 | 0.141
NCI-H1734 | 0.332 | 0.204 | 0.202 | 0.147 | 0.807 | 0.835 | 0.685 | 0.464 | 0.658 | 0.754 | 0.583 | 0.703 | 0.787 | 0.16
LU99A | 0.366 | 0.196 | 0.196 | 0.174 | 0.497 | 0.479 | 0.44 | 0.302 | 0.636 | 0.515 | 0.543 | 0.474 | 0.57 | 0.211
RERF-LC-KJ | 0.914 | 0.916 | 0.475 | 0.26 | 0.741 | 0.736 | 0.725 | 0.56 | 0.816 | 0.903 | 0.853 | 0.891 | 0.914 | 0.4
NCI-H2087 | 0.208 | 0.2 | 0.0957 | 0.0947 | 0.801 | 0.924 | 0.515 | 0.367 | 1.08 | 0.882 | 0.739 | 1.03 | 0.85 | 0.0793
NCI-H2170 | 0.43 | – | 0.314 | 0.176 | 0.796 | 0.704 | 0.33 | 0.292 | 1.21 | 1.21 | 0.771 | 1.2 | 1.23 | 0.218
HCC-78 | 0.502 | 0.469 | 0.462 | 0.464 | 0.463 | 0.426 | 0.325 | 0.232 | 0.305 | 0.326 | 0.327 | 0.296 | 0.401 | 0.472
NCI-H2228 | 0.209 | 0.215 | 0.3 | 0.0805 | 0.665 | 0.373 | 0.407 | 0.321 | 0.504 | 0.47 | 0.519 | 0.475 | 0.479 | 0.102
H3255 | 0.275 | 0.24 | 0.24 | 0.178 | 0.798 | 0.77 | 0.734 | 0.537 | 0.829 | 1.04 | 0.891 | 0.917 | 1.05 | 0.181
HCC-15 | 0.527 | – | 0.503 | 0.229 | 0.952 | 0.912 | 0.554 | 0.327 | 0.952 | 0.934 | 0.647 | 0.834 | 0.883 | 0.275
NCI-H838 | 0.151 | 0.138 | 0.151 | 0.0855 | 0.716 | 0.637 | 0.404 | 0.266 | 1.12 | 0.781 | 0.674 | 0.903 | 0.884 | 0.121
NCI-H2023 | 0.234 | 0.186 | 0.0972 | 0.0509 | 0.369 | 0.124 | 0.103 | 0.0849 | 0.686 | 0.429 | 0.53 | 0.718 | 0.685 | 0.0704
HCC-44 | – | – | 0.768 | 0.41 | 1.09 | 1.07 | 0.824 | 0.544 | 0.892 | 0.88 | 0.768 | 0.9 | 0.861 | 0.53
ChaGo-K-1 | 0.886 | – | 0.811 | 0.701 | 0.814 | 0.687 | 0.622 | 0.384 | 1.34 | 1.17 | 0.769 | 1.28 | 1.31 | 0.696
COR-L23 | 0.218 | 0.109 | 0.117 | 0.0791 | 0.455 | 0.372 | 0.239 | 0.159 | 0.711 | 0.783 | – | 0.613 | 0.82 | 0.103
EMC-BAC-2 | 0.383 | 0.242 | 0.213 | 0.207 | 0.448 | 0.566 | 0.463 | 0.226 | 0.788 | 0.778 | 0.585 | 0.779 | 0.91 | 0.228
LCLC-103H | 0.507 | 0.43 | 0.393 | 0.253 | 0.808 | 0.829 | 0.673 | 0.469 | 1.09 | 1.11 | 0.952 | 1.11 | 1.09 | 0.29
LK-2 | 0.798 | 0.555 | 0.49 | 0.287 | 0.275 | 0.3 | 0.303 | 0.304 | 0.185 | 0.243 | – | – | 0.216 | 0.426
NCI-H460 | 0.0657 | 0.0441 | 0.0429 | 0.0184 | 0.903 | 0.222 | 0.082 | 0.0565 | 1.41 | 1.07 | – | 0.833 | 1.19 | 0.0284
NCI-H3122 | 0.248 | – | 0.225 | 0.171 | 0.985 | 0.867 | 0.392 | – | 0.282 | 0.251 | 0.266 | 0.232 | 0.259 | –
NCI-H2126 | 0.353 | 0.339 | 0.348 | 0.327 | 0.59 | 0.296 | 0.279 | 0.262 | 1.13 | 1.01 | 1.03 | 1.04 | 1.11 | 0.33
LOU-NH91 | 0.535 | 0.446 | 0.475 | 0.28 | 0.937 | 0.988 | 0.607 | 0.35 | 0.978 | 0.768 | 0.697 | 0.688 | 0.75 | 0.314
NCI-H1651 | 0.497 | 0.471 | 0.318 | 0.249 | 0.529 | 0.531 | 0.246 | 0.245 | 0.969 | 0.86 | – | 0.93 | 0.929 | 0.313
NCI-H520 | 0.272 | 0.262 | 0.159 | 0.12 | 0.673 | 0.681 | 0.528 | 0.394 | 0.801 | 0.747 | 0.445 | 0.828 | 0.876 | 0.116
